Data as given in PMC5529566, “The cryo-EM structure of gastric H^+,K^+-ATPase with bound BYK99, a high-affinity member of K^+-competitive, imidazo[1,2-a]pyridine inhibitors” (Scientific Reports, 2017).

How the values were obtained:
H^+,K^+-ATPase L139I = H^+,K^+-ATPase L139I (Sus scrofa, UniProt P19156, L140I); assay: ATPase assay, L139I mutant
H^+,K^+-ATPase Q127F = H^+,K^+-ATPase Q127F (Sus scrofa, UniProt P19156, Q128F); assay: ATPase assay, Q127F mutant
H^+,K^+-ATPase N138D = H^+,K^+-ATPase N138D (Sus scrofa, UniProt P19156, N139D); assay: ATPase assay, N138D mutant
H^+,K^+-ATPase M334F = H^+,K^+-ATPase M334F (Sus scrofa, UniProt P19156, M335F); assay: ATPase assay, M334F mutant
H^+,K^+-ATPase Y140I = H^+,K^+-ATPase Y140I (Sus scrofa, UniProt P19156, Y141I); assay: ATPase assay, Y140I mutant
H^+,K^+-ATPase N138L = H^+,K^+-ATPase N138L (Sus scrofa, UniProt P19156, N139L); assay: ATPase assay, N138L mutant
H^+,K^+-ATPase I126A = target: T1, H^+,K^+-ATPase I126A (Sus scrofa, UniProt P19156, I127A); assay: ATPase assay, I126A mutant; assay type: biochemical, pig
T1 construct: made in house; host or cells: HEK293S GnT1- cells (BacMam baculovirus transduction); permeabilised membrane fractions

H^+,K^+-ATPase A339S = H^+,K^+-ATPase A339S (Sus scrofa, UniProt P19156, A340S); assay: ATPase assay, A339S mutant
Sequence of H^+,K^+-ATPase A339S (P19156 whole entry A340S): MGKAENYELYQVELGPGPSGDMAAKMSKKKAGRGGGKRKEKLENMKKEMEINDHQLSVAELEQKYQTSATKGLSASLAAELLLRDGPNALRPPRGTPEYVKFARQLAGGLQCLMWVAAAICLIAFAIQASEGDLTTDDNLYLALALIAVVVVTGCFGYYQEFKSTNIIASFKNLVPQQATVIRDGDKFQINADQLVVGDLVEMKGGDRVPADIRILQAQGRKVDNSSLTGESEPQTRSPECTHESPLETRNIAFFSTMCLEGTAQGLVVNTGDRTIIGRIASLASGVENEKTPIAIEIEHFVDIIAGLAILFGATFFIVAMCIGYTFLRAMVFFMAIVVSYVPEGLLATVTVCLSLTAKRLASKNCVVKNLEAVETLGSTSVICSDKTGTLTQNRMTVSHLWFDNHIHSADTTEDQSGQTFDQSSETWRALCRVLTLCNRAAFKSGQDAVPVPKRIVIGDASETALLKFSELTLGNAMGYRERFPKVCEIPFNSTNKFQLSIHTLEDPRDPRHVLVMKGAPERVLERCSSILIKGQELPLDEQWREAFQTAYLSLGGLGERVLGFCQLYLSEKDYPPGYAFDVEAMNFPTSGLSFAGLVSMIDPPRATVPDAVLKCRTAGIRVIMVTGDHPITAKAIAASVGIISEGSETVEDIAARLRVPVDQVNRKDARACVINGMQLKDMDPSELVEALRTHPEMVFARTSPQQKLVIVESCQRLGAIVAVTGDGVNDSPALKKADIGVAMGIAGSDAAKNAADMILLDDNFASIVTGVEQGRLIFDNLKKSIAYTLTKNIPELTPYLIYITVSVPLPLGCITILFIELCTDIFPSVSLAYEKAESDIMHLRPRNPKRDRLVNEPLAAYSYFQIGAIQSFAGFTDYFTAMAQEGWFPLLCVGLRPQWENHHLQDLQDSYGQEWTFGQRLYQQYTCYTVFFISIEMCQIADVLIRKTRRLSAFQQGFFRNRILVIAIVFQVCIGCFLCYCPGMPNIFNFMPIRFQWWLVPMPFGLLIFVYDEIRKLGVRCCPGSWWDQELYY
Sequence of H^+,K^+-ATPase A339S (P18434 whole entry partner): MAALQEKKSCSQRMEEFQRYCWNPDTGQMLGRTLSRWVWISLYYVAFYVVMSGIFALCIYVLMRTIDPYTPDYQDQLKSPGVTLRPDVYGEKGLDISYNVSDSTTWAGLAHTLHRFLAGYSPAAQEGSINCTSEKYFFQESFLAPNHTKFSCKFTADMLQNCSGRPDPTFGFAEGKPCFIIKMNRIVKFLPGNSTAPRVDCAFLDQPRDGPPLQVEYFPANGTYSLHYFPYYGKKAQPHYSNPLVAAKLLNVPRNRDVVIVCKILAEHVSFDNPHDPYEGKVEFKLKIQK

H^+,K^+-ATPase F332I = H^+,K^+-ATPase F332I (Sus scrofa, UniProt P19156, F333I); assay: ATPase assay, F332I mutant
H^+,K^+-ATPase N138A = H^+,K^+-ATPase N138A (Sus scrofa, UniProt P19156, N139A); assay: ATPase assay, N138A mutant
Sequence of H^+,K^+-ATPase N138A (P19156 whole entry N139A): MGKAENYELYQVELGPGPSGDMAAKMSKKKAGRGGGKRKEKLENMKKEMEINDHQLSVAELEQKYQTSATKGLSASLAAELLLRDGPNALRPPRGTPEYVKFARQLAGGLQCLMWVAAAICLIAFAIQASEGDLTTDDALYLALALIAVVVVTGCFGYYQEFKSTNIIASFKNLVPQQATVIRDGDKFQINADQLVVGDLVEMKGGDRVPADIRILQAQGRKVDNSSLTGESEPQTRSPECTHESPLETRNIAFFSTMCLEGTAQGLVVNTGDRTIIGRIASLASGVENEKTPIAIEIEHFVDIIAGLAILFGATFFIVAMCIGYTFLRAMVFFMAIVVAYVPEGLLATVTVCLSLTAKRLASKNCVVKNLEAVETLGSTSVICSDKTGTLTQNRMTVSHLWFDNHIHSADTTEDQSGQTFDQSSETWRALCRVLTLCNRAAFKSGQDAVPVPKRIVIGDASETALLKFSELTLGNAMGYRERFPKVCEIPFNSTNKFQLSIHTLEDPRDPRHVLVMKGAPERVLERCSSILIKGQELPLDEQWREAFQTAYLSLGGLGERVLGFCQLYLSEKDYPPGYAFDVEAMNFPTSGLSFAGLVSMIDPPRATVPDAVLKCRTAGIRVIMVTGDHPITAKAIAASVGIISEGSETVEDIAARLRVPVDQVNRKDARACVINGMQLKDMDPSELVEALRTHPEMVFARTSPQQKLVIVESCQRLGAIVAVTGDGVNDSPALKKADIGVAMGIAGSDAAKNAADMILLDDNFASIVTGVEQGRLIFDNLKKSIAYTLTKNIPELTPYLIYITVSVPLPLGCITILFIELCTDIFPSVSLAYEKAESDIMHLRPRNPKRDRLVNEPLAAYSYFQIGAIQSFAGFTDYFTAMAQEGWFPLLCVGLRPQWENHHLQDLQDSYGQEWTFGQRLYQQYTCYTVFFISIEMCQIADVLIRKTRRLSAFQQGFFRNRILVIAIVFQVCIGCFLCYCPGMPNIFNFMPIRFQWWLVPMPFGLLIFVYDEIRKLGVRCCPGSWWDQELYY
Sequence of H^+,K^+-ATPase N138A (P18434 whole entry partner): as the sequence (P18434 whole entry partner) above

H^+,K^+-ATPase L796F = H^+,K^+-ATPase L796F (Sus scrofa, UniProt P19156, L797F); assay: ATPase assay, L796F mutant
H^+,K^+-ATPase I126F = target: T2, H^+,K^+-ATPase I126F (Sus scrofa, UniProt P19156, I127F); assay: ATPase assay, I126F mutant; assay type: biochemical, pig
T2 construct: made in house; host or cells: HEK293S GnT1- cells (BacMam baculovirus transduction); permeabilised membrane fractions

H^+,K^+-ATPase N138I = H^+,K^+-ATPase N138I (Sus scrofa, UniProt P19156, N139I); assay: ATPase assay, N138I mutant
H^+,K^+-ATPase D137L = H^+,K^+-ATPase D137L (Sus scrofa, UniProt P19156, D138L); assay: ATPase assay, D137L mutant
H^+,K^+-ATPase A335G = H^+,K^+-ATPase A335G (Sus scrofa, UniProt P19156, A336G); assay: ATPase assay, A335G mutant
Sequence of H^+,K^+-ATPase A335G (P19156 whole entry A336G): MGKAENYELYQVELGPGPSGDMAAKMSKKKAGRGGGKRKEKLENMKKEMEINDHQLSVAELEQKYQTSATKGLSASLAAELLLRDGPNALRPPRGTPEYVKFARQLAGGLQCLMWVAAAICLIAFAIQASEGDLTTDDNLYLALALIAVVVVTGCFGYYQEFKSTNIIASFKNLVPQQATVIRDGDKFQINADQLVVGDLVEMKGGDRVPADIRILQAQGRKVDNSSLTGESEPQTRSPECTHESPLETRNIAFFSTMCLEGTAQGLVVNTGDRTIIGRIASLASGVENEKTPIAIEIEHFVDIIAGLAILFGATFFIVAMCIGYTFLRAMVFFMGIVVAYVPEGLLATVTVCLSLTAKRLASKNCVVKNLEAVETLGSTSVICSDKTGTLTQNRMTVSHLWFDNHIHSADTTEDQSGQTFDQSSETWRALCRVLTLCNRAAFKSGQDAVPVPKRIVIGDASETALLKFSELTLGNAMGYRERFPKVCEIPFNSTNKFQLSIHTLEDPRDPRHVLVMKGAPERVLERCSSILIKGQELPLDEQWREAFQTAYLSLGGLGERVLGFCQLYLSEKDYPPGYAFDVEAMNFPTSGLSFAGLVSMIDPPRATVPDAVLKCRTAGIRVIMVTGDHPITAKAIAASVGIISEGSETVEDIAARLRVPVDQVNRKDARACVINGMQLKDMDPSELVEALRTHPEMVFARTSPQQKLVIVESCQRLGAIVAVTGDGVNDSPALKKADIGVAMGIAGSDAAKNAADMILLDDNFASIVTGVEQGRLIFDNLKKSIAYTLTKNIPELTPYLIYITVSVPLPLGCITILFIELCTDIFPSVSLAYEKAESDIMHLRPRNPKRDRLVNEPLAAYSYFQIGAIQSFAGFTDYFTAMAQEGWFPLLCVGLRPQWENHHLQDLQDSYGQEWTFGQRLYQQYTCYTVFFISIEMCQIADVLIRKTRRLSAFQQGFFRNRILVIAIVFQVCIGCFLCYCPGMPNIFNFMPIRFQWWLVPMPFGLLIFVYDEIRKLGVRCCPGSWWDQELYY
Sequence of H^+,K^+-ATPase A335G (P18434 whole entry partner): as the sequence (P18434 whole entry partner) above

H^+,K^+-ATPase D136I = H^+,K^+-ATPase D136I (Sus scrofa, UniProt P19156, D137I); assay: ATPase assay, D136I mutant
H^+,K^+-ATPase Y140L = H^+,K^+-ATPase Y140L (Sus scrofa, UniProt P19156, Y141L); assay: ATPase assay, Y140L mutant
H^+,K^+-ATPase L139A = H^+,K^+-ATPase L139A (Sus scrofa, UniProt P19156, L140A); assay: ATPase assay, L139A mutant
H^+,K^+-ATPase D137E = target: T3, H^+,K^+-ATPase D137E (Sus scrofa, UniProt P19156, D138E); assay: ATPase assay, D137E mutant; assay type: biochemical, pig
T3 construct: made in house; host or cells: HEK293S GnT1- cells (BacMam baculovirus transduction), membrane fraction

H^+,K^+-ATPase Y140F = H^+,K^+-ATPase Y140F (Sus scrofa, UniProt P19156, Y141F); assay: ATPase assay, Y140F mutant
H^+,K^+-ATPase A125F = H^+,K^+-ATPase A125F (Sus scrofa, UniProt P19156, A126F); assay: ATPase assay, A125F mutant
H^+,K^+-ATPase = test system: H^+,K^+-ATPase; set-up: method as in doi:10.1016/j.tetlet.2006.02.156; conditions: cited from earlier work
H^+,K^+-ATPase D136L = H^+,K^+-ATPase D136L (Sus scrofa, UniProt P19156, D137L); assay: ATPase assay, D136L mutant
H^+,K^+-ATPase L139F = H^+,K^+-ATPase L139F (Sus scrofa, UniProt P19156, L140F); assay: ATPase assay, L139F mutant
H^+,K^+-ATPase V338A = H^+,K^+-ATPase V338A (Sus scrofa, UniProt P19156, V339A); assay: ATPase assay, V338A mutant
H^+,K^+-ATPase WT = target: T4, H^+,K^+-ATPase WT (Sus scrofa, UniProt P19156); assay: K^+-competitive inhibition of H^+,K^+-ATPase activity, 96-well ATPase assay, wild-type; assay type: biochemical, pig; conditions: WT
T4 construct: made in house; host or cells: HEK293S GnT1- cells (BacMam baculovirus transduction); permeabilised membrane fractions
T4 sequence (P19156 whole entry): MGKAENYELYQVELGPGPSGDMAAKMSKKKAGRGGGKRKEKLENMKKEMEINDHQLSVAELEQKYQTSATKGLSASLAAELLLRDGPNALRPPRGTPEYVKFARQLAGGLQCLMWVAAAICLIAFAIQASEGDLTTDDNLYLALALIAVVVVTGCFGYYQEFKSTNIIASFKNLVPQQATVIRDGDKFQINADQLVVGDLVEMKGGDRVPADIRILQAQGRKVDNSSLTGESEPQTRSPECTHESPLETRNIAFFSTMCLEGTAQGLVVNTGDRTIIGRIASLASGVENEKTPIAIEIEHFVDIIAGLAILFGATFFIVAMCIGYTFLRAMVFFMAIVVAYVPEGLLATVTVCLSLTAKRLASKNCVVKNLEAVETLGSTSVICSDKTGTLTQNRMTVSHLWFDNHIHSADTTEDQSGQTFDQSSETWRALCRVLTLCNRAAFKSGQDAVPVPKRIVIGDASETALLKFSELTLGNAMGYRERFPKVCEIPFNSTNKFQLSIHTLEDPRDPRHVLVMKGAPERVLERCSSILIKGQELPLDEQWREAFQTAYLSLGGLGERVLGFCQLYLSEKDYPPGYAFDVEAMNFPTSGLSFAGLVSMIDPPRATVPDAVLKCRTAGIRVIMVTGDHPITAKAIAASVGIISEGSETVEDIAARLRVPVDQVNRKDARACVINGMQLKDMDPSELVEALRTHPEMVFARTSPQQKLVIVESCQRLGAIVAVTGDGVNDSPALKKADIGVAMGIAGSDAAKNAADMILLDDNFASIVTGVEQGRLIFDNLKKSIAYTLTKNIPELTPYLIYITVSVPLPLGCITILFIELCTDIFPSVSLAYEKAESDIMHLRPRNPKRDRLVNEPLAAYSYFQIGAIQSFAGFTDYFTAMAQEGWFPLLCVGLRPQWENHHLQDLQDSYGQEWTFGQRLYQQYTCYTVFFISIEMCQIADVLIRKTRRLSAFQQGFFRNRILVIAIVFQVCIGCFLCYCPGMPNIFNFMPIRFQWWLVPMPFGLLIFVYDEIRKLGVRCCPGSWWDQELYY
T4 sequence (P18434 whole entry partner): as the sequence (P18434 whole entry partner) above

Ki (H^+,K^+-ATPase L139I): 2.6 ± 0.2 nM | -fold increase in K i compared with wild-type (H^+,K^+-ATPase L139I; L139I): 0.4 fold | Ki (H^+,K^+-ATPase Q127F): 41 ± 7 nM | -fold increase in K i compared with wild-type (H^+,K^+-ATPase Q127F; Q127F): 7.1 fold | Ki (H^+,K^+-ATPase N138D): 7.7 ± 0.7 nM | -fold increase in K i compared with wild-type (H^+,K^+-ATPase N138D; N138D): 1.3 fold | Ki (H^+,K^+-ATPase M334F): 16 ± 4 nM | -fold increase in K i compared with wild-type (H^+,K^+-ATPase M334F; M334F): 2.8 fold | Ki (H^+,K^+-ATPase Y140I): 4.3 ± 0.5 nM | -fold increase in K i compared with wild-type (H^+,K^+-ATPase Y140I; Y140I): 0.7 fold | Ki (H^+,K^+-ATPase N138L): 1300 ± 500 nM | -fold increase in K i compared with wild-type (H^+,K^+-ATPase N138L; N138L): 220 fold | -fold increase in K i compared with wild-type (H^+,K^+-ATPase I126A; I126A): 19 fold | Ki (H^+,K^+-ATPase I126A; I126A (M1), high H^+-ATPase activity, K i determined by K m/V max plot): 110 ± 50 nM | Ki (H^+,K^+-ATPase A339S): 21 ± 1 nM | -fold increase in K i compared with wild-type (H^+,K^+-ATPase A339S; A339S): 3.6 fold | Ki (H^+,K^+-ATPase F332I): 8.9 ± 0.7 nM | -fold increase in K i compared with wild-type (H^+,K^+-ATPase F332I; F332I): 1.5 fold | Ki (H^+,K^+-ATPase N138A): 1.4 ± 0.3 nM | -fold increase in K i compared with wild-type (H^+,K^+-ATPase N138A; N138A): 0.2 fold | Ki (H^+,K^+-ATPase L796F): 106 ± 10 nM | -fold increase in K i compared with wild-type (H^+,K^+-ATPase L796F; L796F): 18 fold | -fold increase in K i compared with wild-type (H^+,K^+-ATPase I126F; I126F): 4.1 fold | Ki (H^+,K^+-ATPase I126F; I126F (M1), high H^+-ATPase activity, K i determined by K m/V max plot): 24 ± 15 nM | Ki (H^+,K^+-ATPase N138I): 34 ± 8 nM | -fold increase in K i compared with wild-type (H^+,K^+-ATPase N138I; N138I): 5.9 fold | Ki (H^+,K^+-ATPase D137L): 220 ± 40 nM | -fold increase in K i compared with wild-type (H^+,K^+-ATPase D137L; D137L): 38 fold | Ki (H^+,K^+-ATPase A335G): 1.2 ± 0.1 nM | -fold increase in K i compared with wild-type (H^+,K^+-ATPase A335G; A335G): 0.2 fold | fold increased affinity (H^+,K^+-ATPase A335G; A335G vs WT): 5 fold | Ki (H^+,K^+-ATPase D136I): 15 ± 2 nM | -fold increase in K i compared with wild-type (H^+,K^+-ATPase D136I; D136I): 2.6 fold | Ki (H^+,K^+-ATPase Y140L): 5.3 ± 0.4 nM | -fold increase in K i compared with wild-type (H^+,K^+-ATPase Y140L; Y140L): 0.9 fold | Ki (H^+,K^+-ATPase L139A): 14 ± 2 nM | -fold increase in K i compared with wild-type (H^+,K^+-ATPase L139A; L139A): 2.4 fold | -fold increase in K i compared with wild-type (H^+,K^+-ATPase D137E): 9.8 fold | Ki (H^+,K^+-ATPase D137E; high H^+-ATPase activity, K i' determined by K m/V max plot): 57 ± 16 nM | Ki (H^+,K^+-ATPase Y140F): 35 ± 6 nM | -fold increase in K i compared with wild-type (H^+,K^+-ATPase Y140F; Y140F): 6.0 fold | Ki (H^+,K^+-ATPase A125F): 12 ± 1 nM | -fold increase in K i compared with wild-type (H^+,K^+-ATPase A125F; A125F): 2.1 fold | Ki (H^+,K^+-ATPase D136L): 5.3 ± 0.5 nM | -fold increase in K i compared with wild-type (H^+,K^+-ATPase D136L; D136L): 0.9 fold | Ki (H^+,K^+-ATPase L139F): 18 ± 3 nM | -fold increase in K i compared with wild-type (H^+,K^+-ATPase L139F; L139F): 3.1 fold | Ki (H^+,K^+-ATPase V338A): 50 ± 7 nM | -fold increase in K i compared with wild-type (H^+,K^+-ATPase V338A; V338A): 8.6 fold | -fold increase in K i compared with wild-type (H^+,K^+-ATPase WT): 1.0 fold | Ki (H^+,K^+-ATPase WT; global fitting, mean ± SEM): 5.8 ± 0.6 nM
SMILES: Cc1nc2c3c(ccn2c1C)[C@@H](O)[C@H](O)[C@@H](c1ccccc1)N3 [BYK99]
fold higher affinity than SCH28080 (H^+,K^+-ATPase): more than 20 fold
